Test results as given in PubChem BioAssay (NCI).
Several values for one entry are separate records, joined by “and”; a condition that tells them apart may be missing. Equal entries are not always repeated.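 Briefly, cells in 96-well plates were exposed to five compound concentrations for 48 h, and endpoints were estimated by linear interpolation. GI50 marks 50% less growth. TGI is the concentration that stops growth completely.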

Legend:
Assay in all cases: NCI anticancer screen, dose series, 48 h
TK-10 renal = system: TK-10 renal
UACC-257 melanoma = system: UACC-257 melanoma
CAKI-1 renal = system: CAKI-1 renal
MALME-3M melanoma = system: MALME-3M melanoma
SK-MEL-2 melanoma = system: SK-MEL-2 melanoma
KM12 colon = system: KM12 colon
MOLT-4 leukemia = system: MOLT-4 leukemia
UACC-62 melanoma = system: UACC-62 melanoma
NCI/ADR-RES ovarian = system: NCI/ADR-RES ovarian
MDA-MB-231 breast = system: MDA-MB-231 breast

Compound: COc1ccc(C(=O)C(C(=O)CCC(=O)Nc2ccc(Cl)c(Cl)c2)c2ccc(OC)cc2)cc1 (stereo unspecified)
- TGI (TK-10 renal): > 100 µM
- TGI (UACC-257 melanoma): > 100 µM
- TGI (CAKI-1 renal): > 100 µM
- TGI (MALME-3M melanoma): > 100 µM
- TGI (SK-MEL-2 melanoma): > 100 µM
- TGI (KM12 colon): > 100 µM
- TGI (MOLT-4 leukemia): > 100 µM
- TGI (UACC-62 melanoma): > 100 µM

Compound: O=S1OC(c2ccccc2)(c2ccccc2)C(c2ccccc2)(c2ccccc2)O1
- TGI (TK-10 renal): > 100 µM
- TGI (UACC-257 melanoma): > 100 µM
- TGI (MALME-3M melanoma): > 100 µM
- TGI (KM12 colon): > 100 µM
- TGI (MOLT-4 leukemia): > 100 µM
- TGI (UACC-62 melanoma): > 100 µM

Compound: CC(=O)C1(O)CC2(c3ccccc3)C(=O)C1(c1ccccc1)C(c1ccccc1)=C2c1ccccc1 (stereo unspecified)
- TGI (TK-10 renal): > 100 µM
- TGI (UACC-257 melanoma): > 100 µM
- TGI (CAKI-1 renal): > 100 µM
- TGI (MALME-3M melanoma): > 100 µM
- TGI (KM12 colon): > 100 µM
- TGI (MOLT-4 leukemia): > 100 µM
- TGI (UACC-62 melanoma): > 100 µM

Compound: CCOC(=O)c1noc2c1CCc1c-2cn(Cc2ccc(OC)cc2)c1-c1cc(OC)c(OC)c(OC)c1
- GI50 (TK-10 renal): > 100 µM
- TGI (TK-10 renal): > 100 µM
- GI50 (UACC-257 melanoma): 85.8 µM
- TGI (UACC-257 melanoma): > 100 µM
- GI50 (NCI/ADR-RES ovarian): 3.52 µM
- TGI (NCI/ADR-RES ovarian): > 100 µM
- GI50 (SK-MEL-2 melanoma): 4.29 µM
- TGI (SK-MEL-2 melanoma): > 100 µM
- GI50 (KM12 colon): 0.91 µM
- TGI (KM12 colon): > 100 µM
- GI50 (MDA-MB-231 breast): 2.7 µM
- TGI (MDA-MB-231 breast): > 100 µM
- GI50 (MOLT-4 leukemia): 2.7 µM
- TGI (MOLT-4 leukemia): > 100 µM
- GI50 (UACC-62 melanoma): 2.74 µM
- TGI (UACC-62 melanoma): > 100 µM

Compound: COc1cc(/C=C2\CC3C4CC=C5CC(OC(C)=O)CC[C@]5(C)C4CC[C@]3(C)C2=O)ccc1OCCN1CCCC1 (stereo partly specified)
- GI50 (TK-10 renal): 7.25 µM
- TGI (TK-10 renal): 19.6 µM
- GI50 (UACC-257 melanoma): 2.09 µM
- TGI (UACC-257 melanoma): 4.2 µM
- GI50 (NCI/ADR-RES ovarian): 12 µM
- TGI (NCI/ADR-RES ovarian): 24.9 µM
- GI50 (CAKI-1 renal): 13.1 µM
- TGI (CAKI-1 renal): 27 µM
- GI50 (SK-MEL-2 melanoma): 6.99 µM
- TGI (SK-MEL-2 melanoma): 23.7 µM
- GI50 (KM12 colon): 3.89 µM
- TGI (KM12 colon): 15 µM
- GI50 (MDA-MB-231 breast): 3.39 µM
- TGI (MDA-MB-231 breast): 11.2 µM
- GI50 (MOLT-4 leukemia): 1.87 µM
- TGI (MOLT-4 leukemia): 8.5 µM
- GI50 (UACC-62 melanoma): 1.93 µM
- TGI (UACC-62 melanoma): 3.85 µM

Compound: CC[C@@]1(OP(=O)(O)O)C(=O)OCc2c1cc1n(c2=O)Cc2cc3ccccc3nc2-1
- GI50 (TK-10 renal): 4.62 µM
- TGI (TK-10 renal): 88 µM
- TGI (UACC-257 melanoma): 2.58 µM and 3.86 µM
- TGI (NCI/ADR-RES ovarian): 0.715 µM
- TGI (CAKI-1 renal): 1.04 µM
- GI50 (MALME-3M melanoma): 1.09 µM
- TGI (MALME-3M melanoma): 9.87 µM and 14 µM
- GI50 (SK-MEL-2 melanoma): 1.85 µM
- TGI (SK-MEL-2 melanoma): 7.36 µM and 5.05 µM
- TGI (KM12 colon): 3.47 µM
- TGI (MOLT-4 leukemia): 0.147 µM and 0.395 µM
- GI50 (UACC-62 melanoma): 0.0269 µM
- TGI (UACC-62 melanoma): 0.404 µM and 1.48 µM

Compound: N#CC(C(=O)CCCC(=O)Nc1ccccc1[N+](=O)[O-])c1c(Cl)cccc1Cl (stereo unspecified)
- TGI (TK-10 renal): > 100 µM
- TGI (UACC-257 melanoma): > 100 µM
- TGI (CAKI-1 renal): > 100 µM
- TGI (MALME-3M melanoma): > 100 µM
- TGI (SK-MEL-2 melanoma): > 100 µM
- TGI (KM12 colon): > 100 µM
- TGI (MOLT-4 leukemia): > 100 µM
- TGI (UACC-62 melanoma): > 100 µM

Compound: COc1ccc(C2COc3c(ccc(OC)c3OC)C2=O)cc1OC (stereo unspecified)
- TGI (TK-10 renal): > 100 µM
- TGI (UACC-257 melanoma): > 100 µM
- TGI (CAKI-1 renal): > 100 µM
- TGI (MALME-3M melanoma): > 100 µM
- TGI (KM12 colon): > 100 µM
- TGI (MOLT-4 leukemia): > 100 µM
- TGI (UACC-62 melanoma): > 100 µM

Compound: O=C(CCc1nnc2s/c(=C\c3ccc([N+](=O)[O-])cc3)c(=O)n12)Nc1ccc(Cl)c(Cl)c1
- TGI (TK-10 renal): > 100 µM
- TGI (UACC-257 melanoma): > 100 µM
- TGI (CAKI-1 renal): > 100 µM
- TGI (MALME-3M melanoma): 98 µM
- TGI (SK-MEL-2 melanoma): 73.9 µM
- TGI (KM12 colon): 31.2 µM
- TGI (MOLT-4 leukemia): 51.5 µM
- TGI (UACC-62 melanoma): 78.8 µM

Compound: O=C([CH-]C(=O)c1ccccc1)c1ccccc1.O=C([CH-]C(=O)c1ccccc1)c1ccccc1.O=C([CH-]C(=O)c1ccccc1)c1ccccc1.[Ga+3]
- GI50 (TK-10 renal): > 100 µM
- TGI (TK-10 renal): > 100 µM
- GI50 (UACC-257 melanoma): 93.3 µM
- TGI (UACC-257 melanoma): > 100 µM
- GI50 (CAKI-1 renal): 67 µM
- TGI (CAKI-1 renal): > 100 µM
- GI50 (MALME-3M melanoma): > 100 µM
- TGI (MALME-3M melanoma): > 100 µM
- GI50 (SK-MEL-2 melanoma): 43.8 µM
- TGI (SK-MEL-2 melanoma): > 100 µM
- GI50 (KM12 colon): 91.5 µM
- TGI (KM12 colon): > 100 µM
- GI50 (MOLT-4 leukemia): 13.3 µM
- TGI (MOLT-4 leukemia): > 100 µM
- GI50 (UACC-62 melanoma): 32.7 µM
- TGI (UACC-62 melanoma): > 100 µM

Compound: COc1ccc2c(c1)[C@@H](NC(C)=O)CCc1cc(OC)c(OC)c(OC)c1-2
- TGI (TK-10 renal): > 100 µM
- TGI (UACC-257 melanoma): > 100 µM
- TGI (CAKI-1 renal): 99 µM
- TGI (MALME-3M melanoma): > 100 µM
- TGI (SK-MEL-2 melanoma): > 21.5 µM
- TGI (KM12 colon): 0.039 µM
- TGI (MOLT-4 leukemia): > 42.5 µM
- TGI (UACC-62 melanoma): > 26.8 µM

Compound: NC(N)NCCCc1cn2c(n1)C1CCCN1C(=O)C2Cc1ccccc1 (stereo unspecified)
- TGI (TK-10 renal): > 100 µM
- TGI (UACC-257 melanoma): > 100 µM
- TGI (CAKI-1 renal): > 100 µM
- TGI (MALME-3M melanoma): > 100 µM
- TGI (SK-MEL-2 melanoma): > 100 µM
- TGI (KM12 colon): > 100 µM
- TGI (MOLT-4 leukemia): > 100 µM
- TGI (UACC-62 melanoma): > 100 µM

Compound: O=C(CCc1n[nH]c(=S)o1)Nc1cc(Cl)ccc1Cl
- TGI (TK-10 renal): > 100 µM
- TGI (UACC-257 melanoma): > 100 µM
- TGI (CAKI-1 renal): > 100 µM
- TGI (MALME-3M melanoma): > 100 µM
- TGI (KM12 colon): > 100 µM
- TGI (MOLT-4 leukemia): > 100 µM
- TGI (UACC-62 melanoma): > 100 µM

Compound: O=C1C2C3CC4C5C3C1C5C1(SCCS1)C42 (stereo unspecified)
- TGI (TK-10 renal): > 100 µM
- TGI (UACC-257 melanoma): > 100 µM
- TGI (CAKI-1 renal): > 100 µM
- TGI (MALME-3M melanoma): > 100 µM
- TGI (SK-MEL-2 melanoma): > 100 µM
- TGI (KM12 colon): > 100 µM
- TGI (MOLT-4 leukemia): > 100 µM
- TGI (UACC-62 melanoma): > 100 µM

Compound: O=c1nc2n(-c3cccc(Cl)c3)c3ccc([N+](=O)[O-])cc3cc-2c(=O)[nH]1
- GI50 (TK-10 renal): 7.27 µM
- TGI (TK-10 renal): 13.9 µM
- GI50 (UACC-257 melanoma): 9.78 µM
- TGI (UACC-257 melanoma): > 25 µM
- GI50 (NCI/ADR-RES ovarian): 6.15 µM
- TGI (NCI/ADR-RES ovarian): 19.7 µM
- GI50 (CAKI-1 renal): 5.71 µM
- TGI (CAKI-1 renal): 16 µM
- GI50 (SK-MEL-2 melanoma): > 25 µM
- TGI (SK-MEL-2 melanoma): > 25 µM
- GI50 (KM12 colon): 3.13 µM
- TGI (KM12 colon): 7.57 µM
- GI50 (MDA-MB-231 breast): 5.36 µM
- TGI (MDA-MB-231 breast): 12.3 µM
- GI50 (MOLT-4 leukemia): 2.02 µM
- TGI (MOLT-4 leukemia): > 25 µM
- GI50 (UACC-62 melanoma): 3.54 µM
- TGI (UACC-62 melanoma): 8.38 µM
